Laboratory results: ChEMBL document CHEMBL1144629, “Synthesis and in vivo antihyperglycemic activity of nature-mimicking furanyl-2-pyranones in STZ-S model” (2007)

Legend:
Type in all cases: functional
Design in all cases: scale not given: the % may be the effect or the level left
[1] = system: Rattus norvegicus; experiment: Antihyperglycemic activity in STZ-induced diabetic Sprague-Dawley rat assessed as decrease in blood glucose at 100 mg/kg, po after 60 mins relative to control
[2] = system: Rattus norvegicus; experiment: Antihyperglycemic activity in STZ-induced diabetic Sprague-Dawley rat assessed as decrease in blood glucose at 100 mg/kg, po after 5 hrs relative to control
[3] = system: Rattus norvegicus; experiment: Antihyperglycemic activity in STZ-induced diabetic Sprague-Dawley rat assessed as decrease in blood glucose at 100 mg/kg, po after 180 mins relative to control
[4] = system: Rattus norvegicus; experiment: Antihyperglycemic activity in STZ-induced diabetic Sprague-Dawley rat assessed as decrease in blood glucose at 100 mg/kg, po after 90 mins relative to control
[5] = system: Rattus norvegicus; experiment: Antihyperglycemic activity in STZ-induced diabetic Sprague-Dawley rat assessed as decrease in blood glucose at 100 mg/kg, po after 30 mins relative to control
[6] = system: Rattus norvegicus; experiment: Antihyperglycemic activity in STZ-induced diabetic Sprague-Dawley rat assessed as decrease in blood glucose at 100 mg/kg, po after 120 mins relative to control
[7] = system: Rattus norvegicus; experiment: Antihyperglycemic activity in STZ-induced diabetic Sprague-Dawley rat assessed as decrease in blood glucose at 100 mg/kg, po after 24 hrs relative to control
[8] = system: Rattus norvegicus; experiment: Antihyperglycemic activity in STZ-induced diabetic Sprague-Dawley rat assessed as decrease in blood glucose at 100 mg/kg, po after 240 mins relative to control

`Cc1cc(-c2cc(N3CCC(C)CC3)c(C#N)c(=O)o2)c(C)o1` showed an Activity [1] of 16.3%, an Activity [2] of 5.5% and an Activity [3] of 2.6%. For the same compound, the Activity [4] was 20.9%, the Activity [5] was 12.5% and the Activity [6] was 16.8%. For the same compound, the Activity [7] was 4.2% and the Activity [8] was 2.8%.

`N#Cc1c(N2CCCCC2)cc(-c2ccco2)oc1=O` showed an Activity [1] of 17.5%, an Activity [2] of 4.8% and an Activity [3] of 7.5%. For the same compound, the Activity [4] was 21.1%, the Activity [5] was 12.8% and the Activity [6] was 21.3%. It also gave an Activity [7] of 10.4% and an Activity [8] of 1.4%.

`N#Cc1c(N2CCN(c3ccccc3)CC2)cc(-c2ccco2)oc1=O` showed an Activity [1] of 15.7%, an Activity [2] of 6.1% and an Activity [3] of 1.9%. It also gave an Activity [4] of 20.2%, an Activity [5] of 11.8% and an Activity [6] of 15.9%. It also gave an Activity [7] of 2.5% and an Activity [8] of 3.9%.

In the case of `CN(C)C(=N)NC(=N)N` [METFORMIN], the Activity [1] is reported as 18.2%, the Activity [2] is reported as 20.7% and the Activity [3] is reported as 18.7%. The Activity [4] was 24.5%, the Activity [5] was 15.9% and the Activity [6] was 29.2%. For the same compound, the Activity [7] was 30% and the Activity [8] was 21.1%.

Work on `Cc1cc(-c2cc(N3CCCC3)c(C#N)c(=O)o2)c(C)o1` yielded an Activity [1] of 17.3%, an Activity [2] of 4.5% and an Activity [3] of 7.8%. The Activity [4] was 20.9%, the Activity [5] was 12.5% and the Activity [6] was 20.9%. The Activity [7] was 10.5% and the Activity [8] was 1.2%.

With `CSc1cc(-c2cc(C)oc2C)oc(=O)c1C#N` the Activity [1] was 16.2%, the Activity [2] was 5.2% and the Activity [3] was 2.3%. The Activity [4] was 21.2%, the Activity [5] was 12.6% and the Activity [6] was 16.5%. It also gave an Activity [7] of 4.5% and an Activity [8] of 2.5%.

In the case of `CN1CCN(c2cc(-c3ccco3)oc(=O)c2C#N)CC1`, the Activity [1] is reported as 17.5%, the Activity [2] is reported as 12.8% and the Activity [3] is reported as 16.8%. It also gave an Activity [4] of 17.3%, an Activity [5] of 12.5% and an Activity [6] of 22.8%. For the same compound, the Activity [7] was 20% and the Activity [8] was 14.6%.

Work on `CSc1cc(-c2ccco2)oc(=O)c1C(N)=O` yielded an Activity [1] of 9.6%, an Activity [2] of 5.52% and an Activity [3] of 1.2%. It also gave an Activity [4] of 6.3%, an Activity [5] of 8.5% and an Activity [6] of 8.9%. It also gave an Activity [7] of 19.3% and an Activity [8] of 1.3%.

Work on `N#Cc1c(N2CCOCC2)cc(-c2ccco2)oc1=O` yielded an Activity [1] of 15.9%, an Activity [2] of 9.8% and an Activity [3] of 1.8%. The Activity [4] was 19.8%, the Activity [5] was 13.1% and the Activity [6] was 17.4%. It also gave an Activity [7] of 0.5% and an Activity [8] of 5.2%.

Work on `CSc1cc(-c2ccco2)oc(=O)c1C#N` yielded an Activity [1] of 16.5%, an Activity [2] of 6.8% and an Activity [3] of 8.1%. The Activity [4] was 19.6%, the Activity [5] was 11.8% and the Activity [6] was 19.8%. For the same compound, the Activity [7] was 6.7% and the Activity [8] was 2.3%.

`Cc1cc(-c2cc(N3CCOCC3)c(C#N)c(=O)o2)c(C)o1` showed an Activity [1] of 18.4%, an Activity [2] of 20.3% and an Activity [3] of 18.5%. For the same compound, the Activity [4] was 24%, the Activity [5] was 16.6% and the Activity [6] was 29%. The Activity [7] was 29.7% and the Activity [8] was 20.7%.

Work on `Cc1cc(-c2cc(N3CCCCC3)c(C#N)c(=O)o2)c(C)o1` yielded an Activity [1] of 9.4%, an Activity [2] of 5.2% and an Activity [3] of 0.8%. The Activity [4] was 6.8%, the Activity [5] was 8.6% and the Activity [6] was 8.7%. The Activity [7] was 19.7% and the Activity [8] was 1%.

Compound `CSc1cc(-c2cc(C)oc2C)oc(=O)c1C(N)=O` has an Activity [1] of 28.8%, an Activity [2] of 11.2% and an Activity [3] of 16.3%. The Activity [4] was 33%, the Activity [5] was 13.2% and the Activity [6] was 29.4%. For the same compound, the Activity [7] was 23.9% and the Activity [8] was 12.6%.
